Test results published in article PMC11357256, “Selectivity Screening and Structure–Cytotoxic Activity Observations of Selected Oleanolic Acid (OA)-Type Saponins from the Amaranthaceae Family on a Wiade Panel of Human Cancer Cell Lines” (Molecules, 2024).

Experiments:
8505C = assay: MTT cell viability assay, 8505C undifferentiated thyroid carcinoma cells; type: cell-based, human; details: for IC50: Homo sapiens, 8505C; for Selectivity Index (SI): IC50 Nthy-ori 3-1 / IC50 8505C
Excerpt: (§1) Cell lines used in the study were grouped as follows: skin panel (melanomas: HTB140, derived from metastatic site: lymph node, ATCC Hs 294 T; malignant A375, ATCC CRL-1619; stage I primary WM793, RRID:CVCL 8787; skin keratinocytes HaCaT); prostate panel (prostate carcinomas: Du145, derived from metastatic site: brain, ATCC HTB-81; grade IV PC3, derived from metastatic site: bone, ATCC CRL-1435, LNCaP, derived from the metastatic site: lymph node, ATCC CRL-1740; prostate epithelial, PNT2, ECACC 95012613); gastrointestinal panel (colorectal adenocarcinomas: Caco2, ATCC HTB-37, HT29, ATCC HTB-38, DLD-1, ATCC CCL-221, HCT116, ATCC CCL-247, and colon epithelial cells CCD 841 CoN, ATCC CRL-1790; hepatocellular carcinoma HepG2, ATCC HB-8065); thyroid panel (follicular thyroid carcinoma FTC133, ECACC 9406090, undifferentiated thyroid carcinoma 8505C, ECACC 94090184, papillary thyroid carcinoma TPC-1, SCC147, normal thyroid follicular epithelial Nthy-ori 3–1, ECACC 90011609); and breast panel (ER-positive breast adenocarcinoma MCF7, ATCC HTB-22; ER-negative breast adenocarcinoma MDA-MB-231, ATCC HTB-26; breast epithelial MCF10A, ATCC CRL-10317). Cells were grown under standard conditions (37 °C, 5% CO2, relative humidity), and culture media (DMEM/F12 for PNT2, WM 793, HT29, PC3, FTC133, 8505 C, MDA-MB-231, TPC-1; DMEM Low Glucose for DU145; DMEM High Glucose for HTB140, A375, HaCaT; MEM with NEAA for Caco2 and MCF7; RPMI1640 with sodium pyruvate for LNCaP; DMEM/F12 with 20 ng/mL epidermal growth factor (EGF), 10 μg/mL insulin, 0.5 μg/mL hydrocortisone, 100 ng/mL cholera toxin) for MCF10A) supplemented with 10% fetal bovine serum (FBS) or 5% donor horse serum for MCF10A, and 1% antibiotics solution (10,000 U penicillin and 10 mg streptomycin/mL) […], as previously described. All cell lines, culture media, and supplements were from Sigma-Aldrich (Germany).
(§2) The cells were seeded in 96-well plates (1.5 × 10^4 cells/well). After 24 h, fresh medium was added, containing the tested compounds (0.5–100 μg/mL) and incubated for 24 or 48 h. Cell viability was determined by MTT assay, according to the manufacturer’s instructions, as described previously. Each experiment was performed in triplicate. The absorbance was measured at 570 nm using a Biotek Synergy microplate reader (BioTek Instruments Inc., Winooski, VT, USA). Cell viability was expressed as a percent of control (untreated cells). Doxorubicin was used as a reference drug.
The selectivity index (SI) was calculated from the following formula:SI = IC50 of compound in a normal cell line/IC50 of compound in cancer cell line.IC50, half maximal inhibitory concentration, is a concentration required to kill 50% of the cells.

HT29 = assay: MTT cell viability assay, HT29 colorectal adenocarcinoma cells; type: cell-based; details: Homo sapiens, HT-29
Excerpt: as §1, §2

DLD-1 = assay: MTT cell viability assay, DLD-1 colon cancer cells; type: cell-based; details: Homo sapiens
Excerpt: as §1, §2

## CC1(C)CCC2(C(=O)O)CCC3(C)C(=CCC4C5(C)CCC(OC6OC(C(=O)O)C(O)C(O)C6O)C(C)(C)C5CCC43C)C2C1 [CE, oleanolic acid-3-O-β-D-glucuronopyranoside]
8505C; 24 h
  IC50: 2.8 µg/mL
  Selectivity Index (SI): 26.9
8505C; 48 h
  IC50: 1.8 µg/mL
  Selectivity Index (SI): 16.5
HT29; HT29, 24 h
  IC50: 4.5 µg/mL
HT29; HT29, 48 h
  IC50: 2 µg/mL
DLD-1; DLD-1, 24 h
  IC50: 31.2 µg/mL
DLD-1; DLD-1, 48 h
  IC50: 9 µg/mL
